The test deals with patients with chronic Hypoxemia. Kind of test: Various drugs with or without pre-inhaled pyruvate formulas (Table VII). It counts as in vivo, human. Further details: SaO2 Measurements taken after medication and compared to baseline / SaO2 Measurements taken after taking the medication and compared to baseline: unit not given here. The protocol: With the hundreds of patients tested in our various clinical trials, data was gathered as to the type of medications the patients used and the frequency of their use over a six-month period. The patients were asked to rate their medications form 1-10 with 1 being the most irritating with the most side effects and 10 being the best with no irritation and no side effects. In these clinical trials, various drugs were evaluated for irritation, mucus production, and efficacy in humans. The drugs were all evaluated using their current formulations and concentrations against the same formulations with the addition of sodium pyruvate, with the calcium, phosphate and magnesium formula given just prior to the use of their medications. They were instructed to 20 inhale this formula just prior to the use of their medications and to evaluate the effect of their medications on the 1-10 scale.
Patients on the various inhaled medications whether inhaled or taken orally or by IV infusion, were enlisted in the evaluation of the inhaled sodium pyruvate calcium, phosphate and magnesium formula. The patients were tested for their SaO2 levels and those that had SaO2 levels below 92% were asked to enlist in the study. […] After the SaO2 levels were determined prior to and one hour after taking their medications, the patients returned the following day, SaO2 measurements were taken one hour prior to taking their medications. The patients were then handed the hypotonic inhalation formula of sodium pyruvate with calcium, phosphate magnesium formula and instructed to inhale it one hour before taking their medications, SaO2 measurements were then taken one hour after taking their medications.

[1] abbreviates: Drug in commercial formula taken in prescribed way.
The mark [2] stands for this setting: Drug in commercial formula with Pre-inhaled sodium pyruvate, calcium & phosphate & magnesium.
[3] abbreviates: Drug in commercial formula with pre-inhaled sodium pyruvate saline only.
Where [4] appears, read: Drugs commercial formula given as instructed in the package.
The mark [5] stands for this setting: Drugs in commercial formula Pre-inhaled sodium pyruvate & calcium & phosphate & magnesium.
Setting [6] is: Drugs in commercial formula with pre-inhaled sodium pyruvate in saline only.

“And” between values parts separate entries of the source, which are not always exact repeats. Equal values may be shown once.

For the compound `CC(C)(C)NCC(O)c1ccc(O)c(CO)c1` (stereo not shown) [Albuterol], the “SaO2 Measurements taken after medication and compared to baseline” value under setting [1] turned out to be 0. The “SaO2 measurements taken after taking medication and compared to baseline” value under setting [2] is “+4”. Besides, the “SaO2 Measurements taken after taking the medication and compared to baseline” value under setting [3] is “+1”. The “Lung functions (rating 1-10)” value reads like this: under setting [4], 8; under setting [5], 8; under setting [6], 8.
For the compound `C[C@H]1[C@H](NC(=O)/C(=N\OC(C)(C)C(=O)O)c2csc(N)n2)C(=O)N1S(=O)(=O)O` [Aztreonam], the “SaO2 Measurements taken after medication and compared to baseline” value under setting [1] is listed as −1. Also, the “SaO2 measurements taken after taking medication and compared to baseline” value under setting [2] was “+4”. In addition, the “SaO2 Measurements taken after taking the medication and compared to baseline” value under setting [3] came out at 0. The “Lung functions (rating 1-10)” value runs as follows: under setting [4], 8; under setting [5], 7; under setting [6], 8.
As to `Oc1ccc2c(c1)[C@@]13CCCC[C@@]1(O)[C@@H](C2)N(CC1CCC1)CC3` [Butorphanol], the “SaO2 Measurements taken after medication and compared to baseline” value under setting [1] is given as −2. Besides, under setting [2], the “SaO2 measurements taken after taking medication and compared to baseline” value worked out at 0. For the same compound, under setting [3], the “SaO2 Measurements taken after taking the medication and compared to baseline” value is on record as 0. Besides, the “Lung functions (rating 1-10)” value reads like this: under setting [4], 6; under setting [5], 9; under setting [6], 7.
Regarding `Clc1ccccc1C(c1ccccc1)(c1ccccc1)n1ccnc1` [Chlotrimizole], the “SaO2 Measurements taken after medication and compared to baseline” value under setting [1] was −2. Besides, the “SaO2 measurements taken after taking medication and compared to baseline” value under setting [2] is given as “+1”. Further, under setting [3], the “SaO2 Measurements taken after taking the medication and compared to baseline” value was “+1”. The “Lung functions (rating 1-10)” value was 4 under setting [4], 8 under setting [5] and 6 under setting [6].
In the case of `O=C(O)c1cc(=O)c2c(OCC(O)COc3cccc4oc(C(=O)O)cc(=O)c34)cccc2o1` [Cromoglycate], the “SaO2 Measurements taken after medication and compared to baseline” value under setting [1] is 0. The “SaO2 measurements taken after taking medication and compared to baseline” value under setting [2] was “+5”. Also, under setting [3], the “SaO2 Measurements taken after taking the medication and compared to baseline” value was 0. Besides, the “Lung functions (rating 1-10)” value turned out to be 3 under setting [4], 7 under setting [5] and 6 under setting [6].
Consider `CNC[C@H](O)c1ccc(O)c(O)c1` [Epinephrine], for which, for the setting “in vivo”, the “Lung functions (rating 1-10)” value is 3 and 4 and 5; the “SaO2 Measurements taken after medication and compared to baseline” value is “+1”; the “SaO2 Measurements taken after taking the medication and compared to baseline” value stood at 0; the “SaO2 measurements taken after taking medication and compared to baseline” value is reported as “+6”.
For the compound `CC1(C)O[C@@H]2C[C@H]3[C@@H]4C[C@H](F)C5=CC(=O)C=C[C@]5(C)[C@H]4[C@@H](O)C[C@]3(C)[C@]2(C(=O)CO)O1` [Flunisolide], the “SaO2 Measurements taken after medication and compared to baseline” value under setting [1] is on record as −1. Further, under setting [2], the “SaO2 measurements taken after taking medication and compared to baseline” value was “+4”. Also, under setting [3], the “SaO2 Measurements taken after taking the medication and compared to baseline” value is listed as “+1”. The “Lung functions (rating 1-10)” value runs as follows: under setting [4], 6; under setting [5], 6; under setting [6], 6.
For the compound `C/C(=C\C(=O)OCCCCCCCCC(=O)O)C[C@@H]1OC[C@H](C[C@@H]2O[C@H]2[C@@H](C)[C@H](C)O)[C@@H](O)[C@H]1O` [Mupirocin], the “SaO2 Measurements taken after medication and compared to baseline” value under setting [1] was determined as 0. Further, the “SaO2 measurements taken after taking medication and compared to baseline” value under setting [2] is reported as “+4”. For the same compound, under setting [3], the “SaO2 Measurements taken after taking the medication and compared to baseline” value stood at 0. Besides, the “Lung functions (rating 1-10)” value reads like this: under setting [4], 4; under setting [5], 8; under setting [6], 6.
With `N=C(N)c1ccc(OCCCCCOc2ccc(C(=N)N)cc2)cc1` [Pentamidine isethionate], the “SaO2 Measurements taken after medication and compared to baseline” value under setting [1] was −1. The “SaO2 measurements taken after taking medication and compared to baseline” value under setting [2] is “+2”. Under setting [3], the “SaO2 Measurements taken after taking the medication and compared to baseline” value is on record as “+1”. For the same compound, the “Lung functions (rating 1-10)” value under setting [4] is recorded as 4, the “Lung functions (rating 1-10)” value under setting [5] came to 8 and the “Lung functions (rating 1-10)” value under setting [6] is reported as 5.
With `NC(=O)c1ncn([C@@H]2O[C@H](CO)[C@@H](O)[C@H]2O)n1` [Ribavirin], under setting [1], the “SaO2 Measurements taken after medication and compared to baseline” value is on record as −3. Moreover, under setting [2], the “SaO2 measurements taken after taking medication and compared to baseline” value is given as “+2”. Besides, the “SaO2 Measurements taken after taking the medication and compared to baseline” value under setting [3] was determined as 0. Moreover, the “Lung functions (rating 1-10)” value reads like this: under setting [4], 5; under setting [5], 7; under setting [6], 6.
On to `NC[C@H]1O[C@H](O[C@H]2[C@H](O)[C@@H](O[C@H]3O[C@H](CO)[C@@H](O)[C@H](N)[C@H]3O)[C@H](N)C[C@@H]2N)[C@H](N)C[C@@H]1O` [Tobramycin], for which the “SaO2 Measurements taken after medication and compared to baseline” value under setting [1] is reported as −2. In addition, under setting [2], the “SaO2 measurements taken after taking medication and compared to baseline” value was “+3”. Moreover, under setting [3], the “SaO2 Measurements taken after taking the medication and compared to baseline” value is given as 0. The “Lung functions (rating 1-10)” value by setting is: under setting [4], 5; under setting [5], 6; under setting [6], 5.
On to `CN[C@H](CC(C)C)C(=O)N[C@H]1C(=O)N[C@@H](CC(N)=O)C(=O)N[C@H]2C(=O)N[C@H]3C(=O)N[C@H](C(=O)N[C@H](C(=O)O)c4cc(O)cc(O)c4-c4cc3ccc4O)[C@H](O)c3ccc(c(Cl)c3)Oc3cc2cc(c3O[C@@H]2O[C@H](CO)[C@@H](O)[C@H](O)[C@H]2O[C@H]2C[C@](C)(N)[C@H](O)[C@H](C)O2)Oc2ccc(cc2Cl)[C@H]1O` [Vancomycin], for which, under setting [1], the “SaO2 Measurements taken after medication and compared to baseline” value was −1. In addition, under setting [2], the “SaO2 measurements taken after taking medication and compared to baseline” value is recorded as “+1”. Besides, the “SaO2 Measurements taken after taking the medication and compared to baseline” value under setting [3] turned out to be 0. Moreover, the “Lung functions (rating 1-10)” value was 6 under setting [4], 8 under setting [5] and 5 under setting [6].
As to `CC(=O)N[C@H]1[C@H]([C@H](O)[C@H](O)CO)OC(C(=O)O)=C[C@@H]1N=C(N)N` [Zanamivir], the “SaO2 Measurements taken after medication and compared to baseline” value under setting [1] is reported as −2. Besides, under setting [2], the “SaO2 measurements taken after taking medication and compared to baseline” value is “+5”. Besides, under setting [3], the “SaO2 Measurements taken after taking the medication and compared to baseline” value is recorded as 0. In addition, the “Lung functions (rating 1-10)” value is, setting by setting: under setting [4], 4; under setting [5], 7; under setting [6], 5.
On to Insulin, for which the “SaO2 Measurements taken after medication and compared to baseline” value under setting [1] is listed as −2. In addition, the “SaO2 measurements taken after taking medication and compared to baseline” value under setting [2] is reported as “+4”. Under setting [3], the “SaO2 Measurements taken after taking the medication and compared to baseline” value is on record as “+1”. For the same compound, the “Lung functions (rating 1-10)” value reads like this: under setting [4], 5; under setting [5], 7; under setting [6], 6.
Consider Levorphanol Tartrate, for which, under setting [1], the “SaO2 Measurements taken after medication and compared to baseline” value is −6. For the same compound, the “SaO2 measurements taken after taking medication and compared to baseline” value under setting [2] is recorded as “+6”. The “SaO2 Measurements taken after taking the medication and compared to baseline” value under setting [3] was “+1”. The “Lung functions (rating 1-10)” value under setting [4] turned out to be 2, the “Lung functions (rating 1-10)” value under setting [5] was 8 and the “Lung functions (rating 1-10)” value under setting [6] is reported as 6.

The values are drawn from patent US11628186B2, “Method and composition for the reduction of viral replication, duration and spread of the COVID-19 and the flu” (priority 2017, dated 2023).
